Where two headings read alike, the source gives them in different places.
Experiments:
[1] = biological target: T1, GDP-loaded KRAS4b (amino acids 1-169) G12C/C118S protein (Homo sapiens, UniProt P01116, C118S/G12C); experiment: Covalent cysteine 12 modification by MALDI-TOF MS, GDP-loaded KRAS G12C; format: binding; conditions: 15 minutes reaction time point
T1 construct: KRAS4b (amino acids 1-169) G12C/C118S protein; made in house
How it was run: (§1)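 KRAS4b 1-169 G12C/C118S loaded with GDP, GppNHp or GTP was used at 1 μM in 20 mM HEPES, 150 mM NaCl, 1 mM MgCl2, pH 7.3, and incubated with compound (5 mM DMSO stock) at room temperature in the dark. % modification at 15 min is adduct peak height over total protein peak heights by linear-mode MALDI-TOF.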

[2] = tested on: pERK in NCI-H358 cells; experiment: Cell-based pERK HTRF assay; conditions: 30 min incubation, read-out: pERK in NCI-H358 cell inhibition IC50
How it was run: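 Cells seeded at 4×10^4/well in RPMI with 10% FBS, then next day treated for 30 min with a 9-point, 3-fold series from 75 μM top concentration at 0.25% DMSO. Lysates were read for pERK by HTRF (d2/Eu cryptate antibodies) after 4–24 h at room temperature, emission at 615 nm.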

[3] = biological target: T2, GppNHp-loaded KRAS4b (amino acids 1-169) G12C/C118S protein (Homo sapiens, UniProt P01116, C118S/G12C); experiment: Covalent cysteine 12 modification by MALDI-TOF MS, GppNHp-loaded KRAS G12C; format: binding; conditions: 15 minutes reaction time point
T2 construct: KRAS4b (amino acids 1-169) G12C/C118S protein; made in house
How it was run: as §1

[4] = biological target: T3, GTP-loaded KRAS4b (amino acids 1-169) G12C/C118S protein (Homo sapiens, UniProt P01116, C118S/G12C); experiment: Covalent cysteine 12 modification by MALDI-TOF MS, GTP-loaded KRAS G12C; format: binding; conditions: 15 minutes reaction time point
T3 construct: KRAS4b (amino acids 1-169) G12C/C118S protein; made in house
Experimental: Reaction: 1 μM of GppNHp-, GTP-, or GDP-loaded KRAS4b (amino acids 1-169) G12C/C118S protein (produced in-house by Protein Expression Laboratory, FNLCR/Leidos Biomed) in 20 mM 4-(2-hydroxyethyl)-1-piperazineethanesulfonic acid (HEPES) buffer containing 150 mM NaCl, 1 mM MgCl2, pH 7.3 was prepared freshly before assay. Ten-μL aliquots of protein were dispensed onto low volume 384-well plate, then 375 nL DMSO, and 25 nL of tested compounds from 5 mM DMSO stocks were added to appropriate wells using ECHO 555 acoustic liquid handler (Labcyte Inc.). For each reaction/assay, three blanks were prepared by mixing 10 μL of protein solution with 400 nL DMSO. The contents of the wells were carefully mixed by aspiration, and then each plate was sealed with an adhesive cover, centrifuged at 2000 g for 1 minute, and kept in the dark at room temperature until 5 min, 15 min, 30 min, or 2 h collections.
Target pretreatment: Before each assay MALDI target (Bruker MPT 384 ground steel BC) was pre-treated by pipetting on each spot 0.75 μL of saturated sinapinic acid in acetonitrile (ACN).
Sample preparation: At collection time point, 2 μL of reaction mixtures were pipetted out into 20 μL MALDI matrix solution (saturated solution of sinapinic acid in 1:1 ACN:water solution containing 0.75% trifluoroacetic acid (TFA)) deposited on 384 well polypropylene plate. Resulting solution was mixed by aspiration, centrifuged at 2000 g for 1 minute, then 1 μL aliquots were dispensed on pre-treated MALDI target using Beckman Coulter Biomek FXP 96/384-Span-8 Laboratory Automation Workstation. Finally, the MALDI target was dried under mild vacuum to produce spots with fine crystalline structure.
Measurements: MALDI-TOF measurements were performed on a Bruker Daltonics rapiflex Tissuetyper TOF-TOF mass spectrometer using linear mode and mass range from 18.6 to 21.6 kDa. Detector gain was set to 3.3× (483 V), sample rate to 5 GS/s, real time smoothing to medium (175 MHz), laser smart beam pattern was set to: “MS Thin Layer M5”, and the laser frequency was 10000 Hz. Spectra were automatically collected using custom Auto Xecute method. Laser power was auto adjusted using fuzzy control. The peak selection range was set to be between 19000 and 21500 Da. Peak evaluation uses half width parameter set to be smaller than 40 Da for processed spectrograms (centroid peak detection; smoothed by SavitzkyGolay algorithm using 7 m/z width and 2 cycles; baseline was subtracted using median algorithm with flatness 1 and median level 0.01). Fuzzy control used Proteins/Oligonucleotides protocol with minimum half width 1/10 times above threshold. Up to 40000 satisfactory shots were collected in 10000 shot steps. Dynamic termination was implemented to finish data collection when peak signal/noise ratio was reaching value of 50.
Spectra processing: Spectra were smoothed by SavitzkyGolay algorithm using 7 m/z width and three cycles. Centroid peak detection algorithm was used with signal to noise threshold set to 6, relative intensity threshold 4%, peak width 10 m/z and median baseline subtraction using flatness of 1 and median level of 0.01. Peak intensity and area under the peak were evaluated and recorded for all peaks between 19,300 Da and 21,550 Da.
Calculation of percent modification: Percent modification was calculated as a ratio of peak height for protein modified by compound to sum of peak height of remaining protein plus peak height for protein modified by compound. If multiple modifications were observed each was calculated as a ratio of peak height for given modification versus sum of peak heights for all observed protein species. Data reported in Table 5 are from 15 minutes reaction time point.

[5] = biological target: T4, Avi-KRAS G12C (1-169) GppNHp/RAF1 RBD-3×FLAG (52-151) (Homo sapiens, UniProt P01116, G12C); experiment: Raf1 RBD-KRAS G12C-GppNHp disruption (protein:protein interaction HTRF assay); format: biochemical
T4 construct: Avi-KRAS G12C (1-169) GppNHp/RAF1 RBD-3×FLAG (52-151)
How it was run: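 HTRF measuring disruption of 50 nM Avi-KRAS G12C (1-169) loaded with GppNHp binding RAF1 RBD-3×FLAG (52-151), in pH 7.5 Tris buffer with 5 mM MgCl2, 0.1% BSA, 10% DMSO. KRAS preincubated with compound 1 h, then RBD 1 h, then detection reagents 1 h, all at room temperature. Compound titration 30-0.02 μM; activity expressed as percent of DMSO control.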

SMILES	GDP-KRAS G12C percent of modification [1]	IC50 [2] [nM]	GppNHp-KRAS G12C percent of modification [3]	GTP-KRAS G12C percent of modification [4]	IC50 [5] [nM]	IC50 ([2]; Homo sapiens, NCI-H358, 0.5 h) [nM]
C=CC(=O)N1C[C@H](Oc2nc(OC[C@@]34CCCN3C[C@H](F)C4)nc3c(F)c(-c4ccc(F)c5sc(N)c(C#N)c45)c(C(F)(F)F)cc23)C[C@H]1COC (atropisomer, axis not shown) [Compound 90]	D (percent of modification <10%)	> 1000	D (percent of modification <10%)	D (percent of modification <10%)	> 20000	
C=CC(=O)N1CC[C@@H](Oc2nc(OC[C@@]34CCCN3C[C@H](F)C4)nc3c(F)c(-c4ccc(F)c5sc(N)c(C#N)c45)c(C(F)(F)F)cc23)[C@H]1COC (atropisomer, axis not shown) [Compound 95]	A (percent of modification ≥70%)		A (percent of modification ≥70%)	A (percent of modification ≥70%)	≤ 500	≤ 100
C=CC(=O)N1CC[C@@H](Oc2nc(OC[C@@]34CCCN3C[C@H](F)C4)nc3c(F)c(-c4ccc(F)c5sc(N)c(C#N)c45)c(C(F)(F)F)cc23)[C@H]1COC (atropisomer, axis not shown) [Compound 96]	D (percent of modification <10%)	100 to 1000	D (percent of modification <10%)	D (percent of modification <10%)	5000 to 20000	
C=CC(=O)N1CC[C@@H](Oc2nc(OC[C@@]34CCCN3C[C@H](F)C4)nc3c(F)c(-c4ccc(F)c5sc(N)c(C#N)c45)c(C(F)(F)F)cc23)[C@H]1C (single isomer, unassigned) [Compound 63]	A (percent of modification ≥70%)	≤ 100	A (percent of modification ≥70%)	A (percent of modification ≥70%)	≤ 500	
C=CC(=O)N1CC[C@@H](Oc2nc(OC[C@@]34CCCN3C[C@H](F)C4)nc3c(F)c(-c4ccc(F)c5sc(N)c(C#N)c45)c(C(F)(F)F)cc23)[C@H]1C (single isomer, unassigned) [Compound 64]	D (percent of modification <10%)	> 1000	D (percent of modification <10%)	D (percent of modification <10%)	> 20000	
C=CC(=O)N1CCC(Oc2nc(OC[C@@]34CCCN3C[C@H](F)C4)nc3c(F)c(-c4ccc(F)c5sc(N)nc45)c(C(F)(F)F)cc23)C1(C)C (some centres unmarked) [Compound 45]	B (50≤percent of modification <70%)		C (10%≤modification <50%)	C (10%≤modification <50%)	≤ 500	≤ 100
C=CC(=O)N1CC[C@@H](Oc2nc(OC[C@@]34CCCN3C[C@H](F)C4)nc3c(F)c(-c4ccc(F)c5sc(N)c(C#N)c45)c(C(F)(F)F)cc23)C1 [Compound 46]	B (50≤percent of modification <70%)		B (50≤percent of modification <70%)	B (50≤percent of modification <70%)	≤ 500	≤ 100
C=CC(=O)N1C[C@H](Oc2nc(OC[C@@]34CCCN3C[C@H](F)C4)nc3cc(-c4ccc(F)c5sc(N)c(C#N)c45)c(C(F)(F)F)cc23)[C@@H](F)C1 [Compound 49]	C (10%≤modification <50%)		B (50≤percent of modification <70%)	C (10%≤modification <50%)	≤ 500	≤ 100
C=CC(=O)N1C[C@@H](F)[C@@H](Oc2nc(OC[C@@]34CCCN3C[C@H](F)C4)nc3cc(-c4ccc(F)c5sc(N)c(C#N)c45)c(C(F)(F)F)cc23)C1 [Compound 50]	B (50≤percent of modification <70%)		A (percent of modification ≥70%)	B (50≤percent of modification <70%)	≤ 500	≤ 100
C=CC(=O)N1CC[C@@H](Oc2nc(OC[C@@]34CCCN3C[C@H](F)C4)nc3c(F)c(-c4ccc(F)c5sc(N)c(C#N)c45)ccc23)C1 [Compound 51]	A (percent of modification ≥70%)		A (percent of modification ≥70%)	A (percent of modification ≥70%)	≤ 500	≤ 100
C=CC(=O)N1CC[C@@H](Oc2nc(OC[C@@]34CCCN3C[C@H](F)C4)nc3c(F)c(-c4ccc(F)c5sc(N)c(C#N)c45)c(F)cc23)C1 [Compound 52]	D (percent of modification <10%)		D (percent of modification <10%)	D (percent of modification <10%)	5000 to 20000	> 1000
C=CC(=O)N1CC[C@@H](Oc2nc(OC[C@@]34CCCN3C[C@H](F)C4)nc3cc(-c4ccc(F)c5sc(N)c(C#N)c45)c(C(F)(F)F)nc23)C1 [Compound 55, 4-(4-(((R)-1-acryloylpyrrolidin-3-yl)oxy)-2-(((2R,7aS)-2-fluorotetrahydro-1H-pyrrolizin-7a (5H)-yl)methoxy)-6-(trifluoromethyl)pyrido[3,2-d]pyrimidin-7-yl)-2-amino-7-fluorobenzo[b]thiophene-3-carbonitrile]	C (10%≤modification <50%)		C (10%≤modification <50%)	D (percent of modification <10%)	≤ 500	≤ 100
C=CC(=O)N1CC[C@@H](Oc2nc(OC[C@@]34CCCN3C[C@H](F)C4)nc3c(F)c(-c4ccc(F)c5sc(N)c(C#N)c45)ncc23)C1 [Compound 56]	A (percent of modification ≥70%)		A (percent of modification ≥70%)	B (50≤percent of modification <70%)	≤ 500	≤ 100

Reference: patent US20250188085A1, “COMPOSITIONS AND METHODS FOR INHIBITION OF RAS” (THERAS, INC., priority 2022, published 2025)
